# Measured values as given in ChEMBL document CHEMBL4043159, “Structural evidence for the DPPH radical-scavenging mechanism of 2-O-α-d-glucopyranosyl-l-ascorbic acid” (Bioorg Med Chem, 2017).
# Calls of active or inactive are those of the source. The calls are words filed in the database; no cut-off is given here.
# What was measured:
# Format in all cases: functional
# [1] = Antioxidant activity assessed as DPPH free radical scavenging activity by measuring retention time of AA-2G-DPPH product at 20 uM incubated for 30 mins by HPLC method
# [2] = Antioxidant activity assessed as DPPH free radical scavenging activity by measuring AA-2G-DPPH product formation at 0.25 to 0.75 mM incubated for 30 mins by HPLC method
# [3] = Antioxidant activity assessed as DPPH free radical scavenging activity by measuring AA-2G-DPPH adducts formation at 5 mM incubated for 10 to 30 mins by 1H NMR spectroscopy
# [4] = Antioxidant activity assessed as DPPH free radical scavenging activity by measuring AA-2G-DPPH adducts formation at 200 uM measured within 10 mins by HPLC
# [5] = Antioxidant activity assessed as DPPH free radical scavenging activity by measuring AA-2G-DPPH adducts level at 200 uM measured at 10 mins by HPLC
# [6] = Antioxidant activity assessed as DPPH free radical scavenging activity by measuring amount of compound consumed at 200 uM measured at 10 mins by HPLC
# [7] = Antioxidant activity assessed as time duration for DPPH free radical scavenging activity at 20 uM by HPLC
# [8] = Antioxidant activity assessed as DPPH free radical scavenging activity by measuring radical-scavenging activity factor (moles of radicals scavenged by each mol of antioxidant) at 20 uM measured at 10 mins by HPLC
# [9] = Antioxidant activity assessed as DPPH free radical scavenging activity by measuring radical-scavenging activity factor (moles of radicals scavenged by each mol of antioxidant) at 20 uM measured at 15 mins by HPLC
# [10] = Antioxidant activity assessed as DPPH free radical scavenging activity by measuring radical-scavenging activity factor (moles of radicals scavenged by each mol of antioxidant) at 20 uM measured at 30 mins by HPLC
# [11] = Antioxidant activity assessed as DPPH free radical scavenging activity by measuring radical-scavenging activity factor (moles of radicals scavenged by each mol of antioxidant) at 20 uM measured at 120 mins by HPLC
SMILES,Retention time [1] [min],Activity [2],Activity [3],Activity [4],Activity [5] [µM],Activity [6] [µM],TIME [7] [h],scavenging factor [8] [mol/mol],scavenging factor [9] [mol/mol],scavenging factor [10] [mol/mol],scavenging factor [11] [mol/mol],Activity [1]
O=C1O[C@H]([C@@H](O)CO)C(O)=C1O[C@H]1O[C@H](CO)[C@@H](O)[C@H](O)[C@H]1O,15,Dose-dependent effect,Active,Active,190,190,2,1.5,1.7,2.1,2.7,–
O=C1O[C@H]([C@@H](O)CO)C(O)=C1O,–,–,–,–,–,–,< 0.0167,1.8,1.8,1.9,1.9,inactive
